Assay results from patent US20160338967A1, “SUSTAINED RELEASE DEPOT FORMULATIONS OF T[…], AND USES THEREOF” (Kineta One, LLC, priority 2013, published 2016).

How the values were obtained:
[1] = In vivo release of ShK-192 formulated with PLG2A, blood ELISA (Example 5); set-up: species or system Sprague-Dawley rats; details: PLG2A depot formulation, 10,000 μg/kg, single SC injection, n=3 (FIG. 7)
Description: The next part of this Example was performed to test formulation and in vivo release of ShK-192 over extended time durations. Similar to the methods used for ShK-186, 1.0 g of PLG2A was dissolved into 5.0 mL dichloromethane with mechanical stirring until the polymer was completely dissolved. A volume of 500 μL including a low dose of ShK-192 (10 mg/mL final concentration; in a 20 mM sodium phosphate aqueous buffer (pH 6.0) with 140 mM NaCl) was formulated by homogenizing for 2 minutes with a 10×195 mm probe (26,000 rpm). The w/o emulsion was then transferred into a 100 mL Pyrex® 1395 media bottle charged with 20 mL of 0.5% w/w DSS, 20 mM phosphate (pH 7.0), water solution.
The mixture was held in thermal contact with ice water (0° C.) and homogenized for 5 minutes at 26,000 rpm, with the final pH of the aqueous (external) phase verified and adjusted to 5.0<pH<7.5. The formulation was then removed from homogenization and mechanically stirred overnight at room temperature in a fume hood to permit solvent evaporation. The next day the suspension was first filtered through a 325 mesh screen, then stored at room temperature with end over end mixing to minimize settling/clumping. Immediately before in vivo use, the formulations were centrifuged utilizing the appropriate volume for 8 minutes, at 4° C. at 2,000 g. […]

[2] = system: delayed type hypersensitivity rat model; test: Delayed type hypersensitivity rat model (ear induration); type: in vivo, Lewis rats; details: single injection of PLG depot formulation on day 0, 1,000-40,000 μg/kg; versus daily SC injection in buffer P6N
Description: Therapeutic efficacy of ShK-186 and ShK-192 depot formulations in animal models of autoimmune disease including the delayed type hypersensitivity rat model. Lewis rats are vaccinated by SC administration to the base of the tail with 100 μg ovalbumin mixed 1:1 (v/v) in Complete Freund's Adjuvant (CFA) (OVA/CFA, 200 μL volume) on day 0 using a 20 G×1% needle. Delayed-type hypersensitivity (DTH) is elicited in the ear on Day 7 by injection of 20 μg OVA in 10 μL to the pinna of the ear of isoflurane-anesthetized animals using 29 G×1 needles. DTH is evaluated on Days 8 and 9 by measuring the induration of the site of antigen injection with a micrometer (caliper). Control treatments with ShK-186 or ShK-192 include SC injections of ShK-186 or ShK-192 at 100 μg/kg, 10 μg/kg, 3 μg/kg or 1 μg/kg given on day 0-7 (daily from the initial immunization). The control treatments are compared to a single injection of a depot formulation of ShK-186 or ShK-192 using a PLG polymer-based (in one example, PLG2A) sustained formulations at a dose of 1,000 μg/kg, 5,000 μg/kg, 10,000 μg/kg, 20,000 μg/kg, or 40,000 μg/kg given on day 0 (time of immunization).

[3] = system: chronic relapsing/remitting autoimmune encephalomyelitis rat model; test: Chronic relapsing/remitting autoimmune encephalomyelitis rat model (clinical scoring); type: in vivo, dark agouti rats; details: single injection of PLG2A depot formulation, 1,000-40,000 μg/kg; prevention and treatment models
Description: Therapeutic efficacy of ShK-186 and ShK-192 depot formulations in animal models of autoimmune disease including the chronic relapsing/remitting autoimmune encephalomyelitis rat model. Chronic relapsing/remitting autoimmune encephalomyelitis (CR-EAE) is induced by SC injection of spinal cord homogenate (Bioreclamation, Inc.) and CFA to dark agouti rats (Harlan). Animals typically recover by 30 days after onset of CR-EAE. Rats are treated with different amounts of ShK-186 or ShK-192 (1, 3, 5, 10, and 100 μg/kg) in SC injections daily, every two days, or every three days at different time points prior to and after elicitation of CR-EAE by immunization. These regimens are compared to single injection of depot formulations (ShK-186 or ShK-192 with PLG2A) at doses of 1,000 μg/kg, 5,000 μg/kg, 10,000 μg/kg, 20,000 μg/kg, or 40,000 μg/kg given at the beginning of the experiment (time immunization, prevention model) and after onset of disease, i.e., after a rat has a clinical score of 1 or greater (treatment model).
The efficacy of the treatments is measured by clinical scoring of the severity of CR-EAE in daily and depot formulation-treated rats. […] Subsets of rats are sacrificed at specific time points of the experiment to harvest tissues or to collect whole blood samples.

[4] = In vivo dose response/release of ShK-186 formulated with PLG2A, blood ELISA (Example 5); set-up: species or system Sprague Dawley rats
Description: In vivo dose response of depot formulations using ShK-186 and ShK-192 with PLG2A. Preparation of depot formulations was performed as follows: 1.0 g of PLG2A was dissolved into 5.0 mL dichloromethane with mechanical stirring until the polymer was completely dissolved. A volume of 500 μL including three levels of ShK-186 (40, 20, and 10 mg/mL final concentration; in a 20 mM sodium phosphate aqueous buffer (pH 6.0) with 140 mM NaCl) was added separately into three separate PLG2A preparations and homogenized for 2 minutes with a 10×195 mm probe (26,000 rpm). The w/o emulsion was then poured into a 100 mL Pyrex® 1395 media bottle charged with 20 mL of 0.5% w/w DSS, and 20 mM phosphate (pH 7.0) water solution. The mixture was homogenized for 5 minutes at the same shear setting (26,000 rpm), with the beaker in thermal contact with melting ice (0° C.). The pH of the aqueous (external) phase was verified and adjusted if necessary to 5.0<pH<7.5.
The formulation was then removed from shear, and stirred overnight at room temperature in a fume hood to allow solvent evaporation. The next morning the suspension was filtered through a 325 mesh screen and stored at room temperature with end over end mixing to avoid settling/clumping. Immediately before use by injection, the formulations were centrifuged utilizing the appropriate volume for 8 min, 4° C. at 2,000 g. The solid particles settled to the bottom, allowing for decanting of the almost clear supernatant, followed by replacement of aqueous solution with an appropriate volume and composition (e.g. PBS), followed by mechanical mixing to resuspend the particles.
Sprague Dawley rats (females, ages 8-16 weeks, n=3) were given a SC injection of 1 mL of the indicated depot formulations. Blood was drawn at various time points and assayed for ShK-186 by ELISA methods.
In a repeat experiment, the time during which blood levels of ShK-186 were monitored was extended.

| Substance | duration of release from depot formulation [1] | time of maximum concentration [1] [days] | reduction of induration (inflammatory response) in DTH [2] | reduction in clinical scores of CR-EAE [3] | shape of in vivo release profiles across doses ([4]; 40,000, 20,000 and 10,000 μg/kg (FIG. 6)) | duration of sustained in vivo release ([4]; single SC dose (1 mL) 20,000 μg/kg, repeat experiment (FIG. 8)) | time blood serum levels are maintained ([4]; single SC injection, 40,000, 20,000 and 10,000 μg/kg, n=3 (FIG. 6)) |
| --- | --- | --- | --- | --- | --- | --- | --- |
| (Para-phosphono-Phe)-AEEAc-RSCIDTIPKSRCTAFQCKHS(Nle)KYRLSFCRKTCGTC-amide [ShK-192] | over 30 days | ~12 | significant therapeutic effect | significant therapeutic effects |  |  |  |
| (L-PhosphoTyr)-AEEAc-RSCIDTIPKSRCTAFQCKHSMKYRLSFCRKTCGTC-amide [ShK-186] |  |  | significant therapeutic effect | significant therapeutic effects | geometrically similar, but scaled by the area under the curve to the total dose | at least 56 days | more than 30 days |
